Data published in patent US12129238B2, “Crystalline form of propoxazepam, the method of its making and use as medicinal agent” (priority 2018, dated 2024).

What was measured:
Format in all cases: in vivo
rats = assay: Model of thermal nociception (tail flick test) on rats; conditions: rat tail-flick, latency 2 hours after administration, dispersed in saline with Tween 80
Experimental: Antinociceptive (analgesic) activity was evaluated on a rat tail “tail-flick” model using a focused light beam on rats. Latency time was determined by tail pulling away from the beam source, expressed in seconds. Animals were randomized with respect to the initial value of the latent period, with index from 4 to 12 seconds. The magnitude of the antinociceptive effect was indicated by the increasing of the length of the latent period (pain sensitivity threshold, PST). The initial indices of the PST and its changes 2 hours after the administration of the test compound were compared. The calculation of ED50 (the average effective dose of analgesic activity in this model for rats) was carried out using the least squares method.
Three samples of compound (I) were prepared and used in the ‘tail-flick’ test: • The first sample is prepared using the sample of Comparative Example 1, i.e. Form I, in its natural coarse crystalline state. In particular, the coarse crystalline sample of Comparative Example 1 is dispersed in a saline solution and stabilized with Tween 80). The crystalline structure (Form I) remains unchanged. • The second sample was prepared by micronizing (mechanically grinding) the coarse crystalline sample of Comparative Example 1, in order to prepare a sample of Form I having a smaller average particle size. In particular, the micronized sample is dispersed in a saline solution and stabilized with Tween 80). The crystalline structure (Form I) remains unchanged. • The third sample is a dispersed sample of Inventive Example 1, i.e. compound (I) in crystalline Form II. In particular, a sample of Inventive Example 1 is dispersed in a saline solution and stabilized with Tween 80). The crystalline structure (Form II) remains unchanged. The third sample has a similar average particle size to the second sample for a side-by-side comparison.

[1] = Determination of the mean lethal dose (LD50), oral administration to mice; conditions: mouse, in vivo, po, stabilized suspension in isotonic sodium chloride solution, 14 days observation
Excerpt: (§1) The preliminary assignment of a substance to a certain toxicity class is based on an indicator that quantitatively characterizes the acute toxicity of the compound—the dose of the substance that causes a lethal effect in 50% of the population (LD50). Determination of this indicator in one of the types of experimental animals allows to extrapolate it for other species and justify the dose limits for the first phase of clinical trials.
(§2) To calculate the average dose, mortality/survival rates of the animals by the end of the observation period were used.

mice [2] = assay: Model of acetic acid-induced pain (cramps) on mice; conditions: 0.75% acetic acid i.p. 2 hours after test compound, cramps counted 1st to 20th minute
Experimental: To reproduce acute visceral and somatic deep pain (nociceptive pain), the method of “acetic acid-induced pain (cramps)” was used in mice. The mice received a 0.75% solution of acetic acid intraperitoneally (at a dose of 0.1 ml/10 g of body weight), 2 hours after the administration of the test compounds. The number of cramps was counted from the first to the 20th minute (inclusive) after modeling the pathological state. The calculation of ED50 (the average effective dose of analgesic activity in this model for mice) was carried out using the least squares method.
Two samples of compound (I) were prepared and used in the ‘tail-flick’ test: • The first sample is a dispersed sample of Form I. This was prepared by adding a hot (65° C.) saturated solution of Comparative Example 1 (Form I) in ethyl alcohol to water at room temperature (about 20° C.) and atmospheric pressure (about 101.325 KPa). Dispersed Form I has a particle size (D(50)) of around 29 μm. • The second sample is a dispersed sample of Inventive Example 1, i.e. compound (I) in crystalline Form II. This sample is prepared by was dispersing Inventive Example 1 in a saline solution stabilized with Tween-80. The crystalline structure remains unchanged. Dispersed Form II has a particle size (D(50)) of around 24.3 μm.

mice [3] = assay: Determination of the mean lethal dose (LD50), oral administration to mice; conditions: stabilized suspension in isotonic sodium chloride solution, 14 days observation
Excerpt: as §1, §2

Row | SMILES | ED50 (Average effective dose (50%)) (rats; listed as Form I (coarse crystalline)) [mg/kg] | ED50 (Average effective dose (50%)) (rats; listed as Form I (micronized)) [mg/kg] | LD50 at 14 days [1] [mg/kg] | ED50 (Average effective dose (50%)) (mice [2]; listed as Dispersed Form I) [mg/kg] | ED50 (Average effective dose (50%)) (rats) [mg/kg] | LD50 (mean lethal dose) (mice [3]) [mg/kg] | ED50 (Average effective dose (50%)) (mice [2]; listed as Dispersed Form II) [mg/kg]
1 | CCCOC1N=C(c2ccccc2Cl)c2cc(Br)ccc2NC1=O (stereo not shown) [Form I, 7-Bromo-3-propoxy-5-(2-chlorophenyl)-1,3-dihydrobenzo-[e]-[1,4]-diazepin-2-one] | 1.82 | 1.06 | 1120 ± 190 | 1.87 |  |  | 
2 | CCCOC1N=C(c2ccccc2Cl)c2cc(Br)ccc2NC1=O (stereo not shown) [Form II, 7-Bromo-3-propoxy-5-(2-chlorophenyl)-1,3-dihydrobenzo-[e]-[1,4]-diazepin-2-one] |  |  |  |  | 0.17 | 1475 ± 402 | 0.89
